Measured values: ChEMBL document CHEMBL1201862, “PubChem BioAssay data set” (2004)
Several values for one entry are separate records, joined by “and”; a condition that tells them apart may be missing. Equal entries are not always repeated.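 Results reflect a 48-hour exposure of cells in 96-well plates to compound at five concentrations. GI50: concentration for 50% inhibition of growth.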 Activity calls are given as the source filed them. Rule as the data show it: active = GI50 up to about 1.1 µM and inactive = higher.

Columns and labels:
Assay in all cases: DTP human tumour cell line panel, 48 h
[1] = system: SK-OV-3
[2] = system: MOLT-4
[3] = system: HCT-15
[4] = system: CCRF-CEM
[5] = system: DMS-114
[6] = system: NCI-H23
[7] = system: HL-60
[8] = system: RXF 393
[9] = system: KM-20L2
[10] = system: COLO 205
[11] = system: M14
[12] = system: DMS-273
[13] = system: NCI-H460
[14] = system: OVCAR-8
[15] = system: SK-MEL-28
[16] = system: HCT-116
[17] = system: HOP-62
[18] = system: U-251
[19] = system: SF-539
[20] = system: DLD-1
[21] = system: SF-268
[22] = system: HOP-92
[23] = system: ACHN
[24] = system: SN12C
[25] = system: RXF 631
[26] = system: EKVX
[27] = system: RPMI-8226
[28] = system: SW-620
[29] = system: NCI-H522
[30] = system: SK-MEL-5
[31] = system: LOX IMVI
[32] = system: A549
[33] = system: UO-31
[34] = system: XF498
[35] = system: A498
[36] = system: LXFL 529
[37] = system: HOP-18
[38] = system: TK-10
[39] = system: K562
[40] = system: SNB-19
[41] = system: 786-0
[42] = system: HCC 2998
[43] = system: KM12
[44] = system: OVCAR-3
[45] = system: SF-295
[46] = system: UACC-257
[47] = system: SK-MEL-2
[48] = system: Malme-3M
[49] = system: SNB-75
[50] = system: M19-MEL
[51] = system: OVCAR-4
[52] = system: HT-29
[53] = system: CAKI-1
[54] = system: UACC-62
[55] = system: OVCAR-5
[56] = system: IGROV-1
[57] = system: NCI/ADR-RES
[58] = system: MCF7
[59] = system: NCI-H226
[60] = system: SNB-78
[61] = system: SR

Measured: GI50

CCc1nc2ccccc2c(=O)n1/N=C(\N=N\c1ccc(Cl)cc1)c1ccc(N(C)C)cc1
29.2 µM: [3]
inactive: [1] 27.7 µM | [2] 20.6 µM | [4] 27.6 µM | [5] 12.2 µM | [6] 22.8 µM | [7] 20.5 µM | [8] 56 µM | [9] 23.6 µM | [10] 27.2 µM | [11] 33.3 µM | [12] 32.3 µM | [13] 24.5 µM | [14] 34.9 µM | [15] 30.1 µM | [16] 17.7 µM | [17] 13.3 µM | [18] 27.3 µM | [19] 30.3 µM | [20] 30.1 µM | [21] 32.1 µM | [22] 13.7 µM | [23] 28.7 µM | [24] 27.7 µM | [25] 67.6 µM | [26] 28.1 µM | [27] 17.4 µM | [28] 45.1 µM | [29] 22.3 µM | [30] 21.9 µM | [31] 47.5 µM | [32] 42.7 µM | [33] 12.2 µM | [34] 25.1 µM | [35] 38.3 µM | [36] 23.7 µM | [37] 25.5 µM | [38] 61.9 µM | [39] 16.7 µM

CCOC(=O)c1cn(CC)c2cc3c(cc2c1=O)SCS3
inactive: [40] > 100 µM | [41] > 100 µM | [1] > 100 µM | [42] > 100 µM | [43] > 100 µM | [44] > 100 µM | [45] > 100 µM | [46] > 100 µM | [2] > 100 µM | [4] > 100 µM | [5] > 100 µM | [47] > 100 µM | [6] > 100 µM | [48] > 100 µM | [7] > 100 µM | [8] > 100 µM | [9] > 100 µM | [49] 52.2 µM | [10] > 100 µM | [50] > 100 µM | [11] > 100 µM | [51] > 100 µM | [52] > 100 µM | [12] > 100 µM | [13] > 100 µM | [14] > 100 µM | [15] > 100 µM | [17] > 100 µM | [18] > 100 µM | [19] > 100 µM | [20] > 100 µM | [21] > 100 µM | [22] > 100 µM | [23] > 100 µM | [24] > 100 µM | [25] > 100 µM | [53] > 100 µM | [26] > 100 µM | [54] > 100 µM | [27] > 100 µM | [28] > 100 µM | [29] > 100 µM | [55] > 100 µM | [30] > 100 µM | [31] > 100 µM | [32] > 100 µM | [56] > 100 µM | [33] > 100 µM | [36] > 100 µM | [37] 80 µM | [38] > 100 µM | [39] > 100 µM
> 100 µM: [3]

N#C/C(=C\c1ccc(O)cc1)C(N)=O
inactive: [40] > 100 µM | [41] > 100 µM | [1] > 100 µM | [42] > 100 µM | [43] > 100 µM and > 74.6 µM | [44] > 100 µM | [45] > 100 µM | [46] > 100 µM | [2] > 100 µM | [4] > 100 µM | [5] > 100 µM | [47] > 100 µM | [6] > 100 µM | [48] > 100 µM | [7] > 100 µM and 57.7 µM | [8] 77.3 µM | [9] > 100 µM | [10] > 100 µM | [50] > 100 µM | [11] > 100 µM | [51] > 100 µM | [52] > 100 µM | [12] > 100 µM | [13] > 100 µM | [14] > 100 µM | [57] > 100 µM | [15] > 100 µM | [16] > 100 µM | [17] > 100 µM | [18] > 100 µM | [19] > 100 µM | [20] > 100 µM | [21] > 100 µM | [22] > 100 µM | [23] > 100 µM | [24] > 100 µM | [25] > 100 µM | [53] > 100 µM | [26] > 50.7 µM | [54] > 100 µM | [27] > 100 µM | [28] > 100 µM | [55] > 100 µM | [30] > 100 µM | [58] > 100 µM | [31] > 100 µM | [32] > 100 µM | [59] > 100 µM and 69.7 µM | [56] > 100 µM | [33] 61.5 µM and 91.6 µM | [60] > 100 µM | [34] > 100 µM and > 88.5 µM | [35] > 95.7 µM and 57.3 µM | [36] > 100 µM | [38] > 100 µM | [39] > 100 µM
> 100 µM: [3]

Oc1cc(O)c2c(-c3c(O)c(-c4ccc(O)c(O)c4)[o+]c4cc(O)cc(O)c34)c(O)c(-c3ccc(O)c(O)c3)[o+]c2c1
41.8 µM: [3]
inactive: [40] 36 µM | [41] 35.5 µM | [1] 34.1 µM | [42] 39.2 µM | [43] 35.1 µM | [44] 20.7 µM | [45] 41.8 µM | [46] > 100 µM | [2] 30.5 µM | [4] > 10 µM | [5] 32.7 µM | [6] 40.3 µM | [48] 46 µM | [7] > 10 µM | [8] 35.9 µM | [9] 46 µM | [49] 24 µM | [10] 42.5 µM | [50] 45.3 µM | [11] 55.5 µM | [51] 27.5 µM | [52] 37.6 µM | [12] 39.6 µM | [61] 25.9 µM | [13] 21.5 µM | [14] 36.6 µM | [15] 91.2 µM | [16] 48.8 µM | [17] 38.9 µM | [18] 30.9 µM | [19] 25.6 µM | [20] 87.7 µM | [21] 40.3 µM | [22] 36.7 µM | [23] 21.7 µM | [24] 39.9 µM | [25] 30.9 µM | [53] 36.9 µM | [26] 28.7 µM | [54] 22.6 µM | [27] 63 µM | [28] 48.4 µM | [55] > 100 µM | [30] > 100 µM | [31] 32.4 µM | [32] 48.2 µM | [59] 20.1 µM | [56] 48 µM | [33] 40.4 µM | [60] 51.5 µM | [34] 33.7 µM | [35] 38.5 µM | [36] 55.5 µM | [37] 8 µM | [38] 61.5 µM | [39] > 10 µM

CCOC(=O)c1ccc(O)cc1 [ETHYLPARABEN]
inactive: [40] > 100 µM | [41] > 100 µM | [1] > 100 µM | [42] > 100 µM | [43] > 100 µM | [45] > 100 µM | [46] > 100 µM | [2] > 100 µM | [4] > 100 µM | [5] > 100 µM | [47] > 100 µM | [6] > 100 µM | [48] > 100 µM | [7] > 100 µM | [8] > 100 µM | [9] > 100 µM | [49] > 100 µM | [10] > 100 µM | [50] > 100 µM | [11] > 100 µM | [51] > 100 µM | [52] > 100 µM | [12] 55.5 µM | [61] > 100 µM | [13] > 100 µM | [15] > 100 µM | [16] > 100 µM | [17] > 100 µM | [18] > 100 µM | [19] > 100 µM | [20] > 100 µM | [21] > 100 µM | [22] > 100 µM | [23] > 100 µM | [25] > 100 µM | [53] > 100 µM | [26] > 100 µM | [54] > 100 µM | [27] > 100 µM | [28] > 100 µM | [29] > 100 µM | [55] > 100 µM | [31] > 100 µM | [32] > 100 µM | [59] > 100 µM | [56] > 100 µM | [33] > 100 µM | [60] > 100 µM | [34] > 100 µM | [38] > 100 µM | [39] > 100 µM
> 100 µM: [3]
